Experiments:
[1] = target: T1, R117H-CFTR (Homo sapiens, UniProt P13569, R117H); assay: Ussing chamber transepithelial current, acute potentiation; assay type: cell-based
T1 construct: R117H-CFTR expressed in FRT cells

[2] = target: T2, cystic fibrosis transmembrane conductance regulator (CFTR) (Homo sapiens, UniProt P13569); assay: Ussing chamber transepithelial current, concentration-response of acute potentiation; assay type: cell-based
T2 construct: endogenous CFTR in non-CF human nasal epithelial cells
T2 sequence (P13569 whole entry): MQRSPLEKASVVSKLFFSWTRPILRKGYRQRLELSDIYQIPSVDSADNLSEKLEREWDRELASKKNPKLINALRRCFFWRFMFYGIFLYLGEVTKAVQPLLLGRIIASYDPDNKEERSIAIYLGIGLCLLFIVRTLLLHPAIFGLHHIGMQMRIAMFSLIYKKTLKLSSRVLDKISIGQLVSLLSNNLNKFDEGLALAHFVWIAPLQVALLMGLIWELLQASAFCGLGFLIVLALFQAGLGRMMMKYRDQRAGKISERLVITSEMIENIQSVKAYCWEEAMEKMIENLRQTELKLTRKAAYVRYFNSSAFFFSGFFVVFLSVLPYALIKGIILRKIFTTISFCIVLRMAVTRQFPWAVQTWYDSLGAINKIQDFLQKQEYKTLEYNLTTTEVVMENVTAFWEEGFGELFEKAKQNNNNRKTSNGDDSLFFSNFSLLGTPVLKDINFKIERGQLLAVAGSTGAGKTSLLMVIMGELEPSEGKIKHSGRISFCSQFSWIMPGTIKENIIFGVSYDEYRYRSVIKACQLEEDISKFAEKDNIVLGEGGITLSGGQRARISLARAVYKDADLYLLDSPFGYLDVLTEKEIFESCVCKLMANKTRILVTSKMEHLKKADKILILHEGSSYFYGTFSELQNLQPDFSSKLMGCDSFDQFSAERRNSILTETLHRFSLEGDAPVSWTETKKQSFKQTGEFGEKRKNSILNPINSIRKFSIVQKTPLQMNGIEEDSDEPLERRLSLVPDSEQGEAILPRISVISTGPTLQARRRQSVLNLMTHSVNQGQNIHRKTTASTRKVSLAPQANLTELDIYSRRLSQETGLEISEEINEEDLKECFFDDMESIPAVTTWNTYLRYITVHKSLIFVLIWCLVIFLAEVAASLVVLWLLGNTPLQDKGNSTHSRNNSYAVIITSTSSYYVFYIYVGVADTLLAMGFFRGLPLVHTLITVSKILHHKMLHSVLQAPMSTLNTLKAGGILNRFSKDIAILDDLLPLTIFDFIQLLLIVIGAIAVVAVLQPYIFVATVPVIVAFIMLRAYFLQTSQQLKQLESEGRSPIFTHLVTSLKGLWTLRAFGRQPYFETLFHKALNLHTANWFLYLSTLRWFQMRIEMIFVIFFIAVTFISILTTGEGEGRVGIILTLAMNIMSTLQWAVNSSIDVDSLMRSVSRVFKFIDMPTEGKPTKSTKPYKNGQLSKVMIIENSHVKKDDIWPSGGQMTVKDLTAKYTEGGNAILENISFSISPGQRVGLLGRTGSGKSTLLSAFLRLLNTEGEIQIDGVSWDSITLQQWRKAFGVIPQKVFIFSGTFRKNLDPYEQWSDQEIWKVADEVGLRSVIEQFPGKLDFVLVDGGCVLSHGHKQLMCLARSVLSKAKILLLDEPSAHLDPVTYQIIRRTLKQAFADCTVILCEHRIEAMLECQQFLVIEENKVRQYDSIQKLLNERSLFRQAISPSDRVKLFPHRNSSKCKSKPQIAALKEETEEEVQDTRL

T1 sequence (P13569 whole entry R117H): as the sequence (P13569 whole entry) above, with R117H counted along it

Row | EC50 [2] [nM] | SMILES | Ussing chamber transepithelial current, acute potentiation [1]
1 |  | CC(C)(C)c1cc(C(C)(C)C)c(NC(=O)c2c[nH]c3ccccc3c2=O)cc1O [VX-770, ivacaftor] | VX-445 and VX-770 did not exhibit the same high degree of synergy in potentiating R117H-CFTR
2 | 1.5 ± 1.4 | Cc1nn(C)cc1S(=O)(=O)NC(=O)c1ccc(-n2ccc(OCC(C)(C)C(F)(F)F)n2)nc1N1C[C@@H](C)CC1(C)C [VX-445, elexacaftor] | We also found that VX-445 potentiates R117H-CFTR expressed in FRT cells

From publication PMC8494914, “Elexacaftor is a CFTR potentiator and acts synergistically with ivacaftor during acute and chronic treatment” (Scientific Reports, 2021)
